Measured values published in patent US10947242B2, “[1,2,4]triazolo[1,5and#8208;A]pyrimidine compounds as PDE2 inhibitors” (Janssen Pharmaceutica NV, priority 2016, dated 2021).
pIC50: −log10 of the molar value. Where two headings read alike, the source gives them in different places.

Key:
[1] = target: T1, Human recombinant PDE2A (hPDE2A) (Homo sapiens, UniProt O00408); assay: In vitro assay PDE2A (SPA, 3H-cGMP hydrolysis); format: biochemical; settings: for Emax: read-out: hPDE2A Emax; for IC50: read-out: hPDE2A pIC50 (converted)
T1 construct: His tag (inferred from metal chelate purification); made in house; host or cells: Sf9 insect cells (baculovirus)
T1 sequence (O00408 whole entry): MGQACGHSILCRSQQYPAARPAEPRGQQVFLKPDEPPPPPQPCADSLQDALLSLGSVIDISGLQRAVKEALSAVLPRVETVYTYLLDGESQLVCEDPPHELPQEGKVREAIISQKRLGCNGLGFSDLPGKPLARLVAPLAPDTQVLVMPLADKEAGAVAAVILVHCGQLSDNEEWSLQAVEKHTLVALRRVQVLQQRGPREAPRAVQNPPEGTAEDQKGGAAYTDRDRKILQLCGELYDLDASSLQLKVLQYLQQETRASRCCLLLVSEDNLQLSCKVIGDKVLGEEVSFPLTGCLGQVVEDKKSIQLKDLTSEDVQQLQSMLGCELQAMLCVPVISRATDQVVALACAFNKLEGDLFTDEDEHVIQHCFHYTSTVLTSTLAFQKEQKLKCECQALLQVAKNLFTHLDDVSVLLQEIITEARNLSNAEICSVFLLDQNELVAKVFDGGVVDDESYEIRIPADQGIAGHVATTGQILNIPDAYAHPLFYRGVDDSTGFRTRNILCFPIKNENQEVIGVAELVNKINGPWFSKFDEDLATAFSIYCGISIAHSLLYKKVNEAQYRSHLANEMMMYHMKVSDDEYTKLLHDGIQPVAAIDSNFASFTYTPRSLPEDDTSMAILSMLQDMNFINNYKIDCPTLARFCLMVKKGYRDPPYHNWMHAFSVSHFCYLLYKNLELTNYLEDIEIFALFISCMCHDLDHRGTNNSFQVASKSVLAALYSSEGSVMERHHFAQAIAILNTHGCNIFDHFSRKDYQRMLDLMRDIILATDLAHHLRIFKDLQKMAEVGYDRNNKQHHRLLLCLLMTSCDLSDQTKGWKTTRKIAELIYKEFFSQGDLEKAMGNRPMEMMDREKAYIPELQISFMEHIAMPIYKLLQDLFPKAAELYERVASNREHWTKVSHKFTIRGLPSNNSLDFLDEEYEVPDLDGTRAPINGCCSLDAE

[2] = target: T2, Human recombinant PDE10A (hPDE10A) (Homo sapiens, UniProt Q9Y233); assay: In vitro assay PDE10A, human clone (SPA, 3H-cAMP hydrolysis); format: biochemical
T2 construct: His tag (inferred from metal chelate purification); made in house; host or cells: Sf9 insect cells (baculovirus)
T2 sequence (Q9Y233 267-1055): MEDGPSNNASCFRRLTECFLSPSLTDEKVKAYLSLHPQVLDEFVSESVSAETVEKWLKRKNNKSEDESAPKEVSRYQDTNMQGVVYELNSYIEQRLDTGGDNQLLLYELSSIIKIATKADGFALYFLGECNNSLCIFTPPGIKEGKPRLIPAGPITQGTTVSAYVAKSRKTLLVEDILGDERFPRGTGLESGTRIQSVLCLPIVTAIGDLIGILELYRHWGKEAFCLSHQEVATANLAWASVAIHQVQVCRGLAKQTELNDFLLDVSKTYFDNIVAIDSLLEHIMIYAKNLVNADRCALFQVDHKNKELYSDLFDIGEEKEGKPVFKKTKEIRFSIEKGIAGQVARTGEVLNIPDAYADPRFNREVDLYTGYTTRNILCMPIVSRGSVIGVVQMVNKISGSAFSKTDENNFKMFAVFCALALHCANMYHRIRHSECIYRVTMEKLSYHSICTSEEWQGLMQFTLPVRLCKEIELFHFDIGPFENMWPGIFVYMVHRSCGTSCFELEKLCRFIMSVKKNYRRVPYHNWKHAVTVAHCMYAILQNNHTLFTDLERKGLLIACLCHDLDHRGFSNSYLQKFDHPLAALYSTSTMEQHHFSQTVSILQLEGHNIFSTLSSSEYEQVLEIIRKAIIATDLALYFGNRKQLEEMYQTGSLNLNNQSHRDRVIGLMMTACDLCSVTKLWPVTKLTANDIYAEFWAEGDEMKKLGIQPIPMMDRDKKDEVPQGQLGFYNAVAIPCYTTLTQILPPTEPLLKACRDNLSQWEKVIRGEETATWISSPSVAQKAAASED
Summary of the method: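 Hydrolysis of 3H-cAMP (60 nM cAMP, 0.008 μCi tracer) proceeded for 60 min at room temperature, with the product detected by SPA bead scintillation counting. The enzyme was hPDE10A from baculovirus-infected Sf9 cells in Tris pH 7.8 buffer with MgCl2 and EGTA, and compounds were at 1% DMSO final. Blanks lacked enzyme.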

[3] = target: T3, Human recombinant PDE3A (hPDE3A) (Homo sapiens, UniProt Q14432); assay: In vitro assay PDE3A (SPA, 3H-cAMP hydrolysis); format: biochemical; settings: for IC50: hPDE3B pIC50, read-out: pIC50 (converted); for Emax: read-out: hPDE3B Emax, read-out: Emax;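 on all read-outs here: the method names PDE3A and the table heading PDE3B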
T3 construct: purchased Scottish Biomedical; host or cells: Sf9 insect cells
T3 sequence (Q14432 whole entry): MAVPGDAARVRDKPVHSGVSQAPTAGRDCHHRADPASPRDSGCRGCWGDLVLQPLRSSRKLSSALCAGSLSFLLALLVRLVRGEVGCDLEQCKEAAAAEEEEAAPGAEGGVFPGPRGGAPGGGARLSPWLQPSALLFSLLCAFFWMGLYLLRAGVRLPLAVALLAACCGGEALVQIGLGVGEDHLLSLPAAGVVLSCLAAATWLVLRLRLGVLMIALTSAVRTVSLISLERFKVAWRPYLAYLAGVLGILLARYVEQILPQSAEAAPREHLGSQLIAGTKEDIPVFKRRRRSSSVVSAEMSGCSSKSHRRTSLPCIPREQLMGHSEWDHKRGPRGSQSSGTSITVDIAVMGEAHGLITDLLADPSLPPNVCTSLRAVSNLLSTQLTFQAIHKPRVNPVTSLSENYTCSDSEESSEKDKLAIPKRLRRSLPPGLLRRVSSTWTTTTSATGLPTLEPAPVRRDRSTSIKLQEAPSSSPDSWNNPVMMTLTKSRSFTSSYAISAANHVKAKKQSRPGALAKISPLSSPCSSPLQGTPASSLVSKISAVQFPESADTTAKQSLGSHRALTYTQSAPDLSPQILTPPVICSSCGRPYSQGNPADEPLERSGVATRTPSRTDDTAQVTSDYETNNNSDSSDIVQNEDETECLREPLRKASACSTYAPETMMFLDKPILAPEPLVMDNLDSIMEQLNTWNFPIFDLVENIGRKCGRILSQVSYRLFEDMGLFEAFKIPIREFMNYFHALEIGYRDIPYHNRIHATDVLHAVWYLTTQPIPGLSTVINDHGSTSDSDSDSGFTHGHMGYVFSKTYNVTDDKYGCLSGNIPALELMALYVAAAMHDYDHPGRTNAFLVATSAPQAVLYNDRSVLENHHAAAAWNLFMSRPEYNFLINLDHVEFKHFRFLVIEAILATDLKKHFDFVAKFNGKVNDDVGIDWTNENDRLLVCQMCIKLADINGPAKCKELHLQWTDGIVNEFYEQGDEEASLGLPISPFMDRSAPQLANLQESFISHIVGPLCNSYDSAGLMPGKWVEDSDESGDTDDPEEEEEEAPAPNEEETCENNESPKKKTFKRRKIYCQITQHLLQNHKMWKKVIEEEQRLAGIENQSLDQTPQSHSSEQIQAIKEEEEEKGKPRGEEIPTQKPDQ
Summary of the method: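 Radiometric SPA measuring [3H]-cAMP hydrolysis (0.4 μM cAMP, 2.4 μCi/ml) over 60 min at room temperature, in Tris pH 7.8 buffer with MgCl2 and EGTA, 1% DMSO. Enzyme: recombinant human brain PDE3A expressed in Sf9 cells, used as partially purified lysate. Counts compared with enzyme-free blanks and vehicle controls.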

[4] = target: T4, PDE2A (Rattus norvegicus, UniProt Q01062); assay: PDE2 occupancy by test compounds, ex-vivo autoradiography with [3H]B-17a; format: in vivo, Male Wistar rats; settings: 10 mg/kg, percentage receptor occupancy, ex-vivo autoradiography, striatum
T4 construct: Twenty μm-thick striatal sections were cut; from tissue; host or cells: rat brain, striatal sections
T4 sequence (Q01062 1-928): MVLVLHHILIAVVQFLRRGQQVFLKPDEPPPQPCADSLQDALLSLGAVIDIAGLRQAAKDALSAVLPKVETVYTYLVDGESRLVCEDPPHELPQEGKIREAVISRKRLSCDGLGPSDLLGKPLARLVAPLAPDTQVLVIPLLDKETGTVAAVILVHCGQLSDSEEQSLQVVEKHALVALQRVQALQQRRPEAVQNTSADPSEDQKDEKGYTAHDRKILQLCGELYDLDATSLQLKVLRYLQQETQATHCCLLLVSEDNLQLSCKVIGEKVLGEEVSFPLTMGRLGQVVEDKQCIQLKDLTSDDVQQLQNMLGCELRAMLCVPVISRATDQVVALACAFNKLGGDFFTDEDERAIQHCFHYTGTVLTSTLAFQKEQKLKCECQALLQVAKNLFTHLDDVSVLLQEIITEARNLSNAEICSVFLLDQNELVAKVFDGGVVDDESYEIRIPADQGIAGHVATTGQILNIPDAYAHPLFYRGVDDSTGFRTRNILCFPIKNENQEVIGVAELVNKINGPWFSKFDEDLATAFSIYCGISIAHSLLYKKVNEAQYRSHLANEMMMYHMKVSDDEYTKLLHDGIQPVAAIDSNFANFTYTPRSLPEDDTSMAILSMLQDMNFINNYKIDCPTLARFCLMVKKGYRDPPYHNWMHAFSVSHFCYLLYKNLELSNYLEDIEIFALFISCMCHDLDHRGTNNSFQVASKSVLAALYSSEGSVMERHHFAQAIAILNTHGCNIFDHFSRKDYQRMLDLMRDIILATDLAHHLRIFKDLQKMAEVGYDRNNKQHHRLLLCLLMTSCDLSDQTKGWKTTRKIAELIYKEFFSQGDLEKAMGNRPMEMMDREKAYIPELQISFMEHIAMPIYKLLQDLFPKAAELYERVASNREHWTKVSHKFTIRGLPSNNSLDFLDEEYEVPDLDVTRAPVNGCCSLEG

[5] = hPDE2A pIC50, human recombinant PDE2A, 10 μM cGMP substrate
[6] = human clone (h), default, read-out: hPDE10A2 Emax
[7] = human clone (h), default, read-out: hPDE10A2 pIC50 (converted)
[8] = human clone by default (no (r) mark), read-out: hPDE10A2 or rPDE10A2 Emax
[9] = human clone by default (no (r) mark), read-out: hPDE10A2 or rPDE10A2 pIC50 (converted)
[10] = human recombinant PDE2A, 10 μM cGMP substrate

Structure (SMILES) | pIC50 ([1]; hPDE2A pIC50) | pIC50 [1, 5] | Emax [1] [%] | Emax [2, 6] [%] | IC50 [2, 7] [nM] | IC50 [3] [nM] | Emax [3] [%] | receptor occupancy at 10 mg/kg ([4]; po, route PO (oral)) [%] | IC50 [1] [nM] | Emax [2, 8] [%] | IC50 [2, 9] [nM] | receptor occupancy at 10 mg/kg ([4]; route PO (oral)) [%] | IC50 [1, 10] [nM] | Emax ([1]; human recombinant PDE2A) [%] | receptor occupancy at 10 mg/kg ([4]; sc, route SC (subcutaneous)) [%]
C[C@@H]1CCN(C(=O)c2cc(F)cc(C#N)c2)C[C@H]1c1cc(C(F)F)nc2ncnn12 [Compound 190] | 7.99 | 7.99 | 100 | 96 | 158 | > 10000 | 39 | 1 |  |  |  |  |  |  | 
O=C(c1ccc2ncc(F)cc2c1)N1[C@H]2CC[C@H](c3cc(C(F)F)nc4ncnn34)[C@@H]1CC2 [Compound 312] |  |  | 99 |  |  | > 10000 | 37 |  | 21.9 | 93 | 617 | -16 |  |  | 
Cc1cc([C@@H]2CN(C(=O)c3cc(C)c(Cl)c(C)c3)CC[C@H]2C)n2ncnc2n1 [Compound 109] | 9.03 | 9.03 | 101 | 99 | 6.61 | 457 | 98 | 43 |  |  |  |  |  |  | 
C[C@@H]1CCN(C(=O)c2ccc(C3CC3)c(F)c2)C[C@H]1c1cc(C(F)F)nc2ncnn12 [Compound 103] |  |  | 99 | 100 | 18.2 | 87.1 | 100 |  | 0.708 |  |  |  | 0.708 | 99 | 42
Cc1c(C(=O)N2CC[C@@H](C)[C@H](c3cc(C(F)F)nc4ncnn34)C2)oc2ccccc12 [Compound 48] |  |  | 100 | 100 | 43.7 | 87.1 | 99 |  | 0.174 |  |  |  | 0.174 | 100 | 96
Cc1cc([C@@H]2CN(C(=O)c3cc(C)c(F)c(C)c3)CC[C@H]2C)n2ncnc2n1 [Compound 117] | 8.94 |  | 100 | 99 | 9.77 | 851 | 97 | 8 |  |  |  |  |  |  | 
Cc1cc(C(=O)N2CC[C@@H](C)[C@H](c3cc(C(F)F)nc4ncnn34)C2)c(F)c(C2CC2)n1 [Compound 278] |  |  | 99 |  |  | 708 | 97 | 30 | 0.933 | 99 | 145 |  |  |  | 
Cc1cc(C(=O)N2CC[C@@H](C)[C@H](c3cc(C(F)F)nc4ncnn34)C2)cc(C)c1Cl [Compound 76] | 9.64 | 9.64 | 99 | 101 | 31.6 | 1230 | 91 | 17 |  |  |  |  |  |  | 
Cc1cc([C@@H]2CN(C(=O)c3cc(Cl)ncc3C)CC[C@H]2C)n2ncnc2n1 [Compound 18] |  |  | 100 | 97 | 195 | 6460 | 65 | 4 | 4.68 |  |  |  | 4.68 | 100 | 
Cc1ccc(C(=O)N2CC[C@@H](C)[C@H](c3cc(C(F)F)nc4ncnn34)C2)nc1C [Compound 85] |  |  | 100 | 88 | 1200 | 7760 | 37 |  | 6.46 |  |  |  | 6.46 | 100 | 1
